Source: patent US9169254B2, “Spiroimidazolone derivative” (Chugai Seiyaku Kabushiki Kaisha, priority 2009, dated 2015)

Biological target: T1, human PTH1 receptor (Homo sapiens, UniProt Q03431)
T1 sequence (Q03431 27-593): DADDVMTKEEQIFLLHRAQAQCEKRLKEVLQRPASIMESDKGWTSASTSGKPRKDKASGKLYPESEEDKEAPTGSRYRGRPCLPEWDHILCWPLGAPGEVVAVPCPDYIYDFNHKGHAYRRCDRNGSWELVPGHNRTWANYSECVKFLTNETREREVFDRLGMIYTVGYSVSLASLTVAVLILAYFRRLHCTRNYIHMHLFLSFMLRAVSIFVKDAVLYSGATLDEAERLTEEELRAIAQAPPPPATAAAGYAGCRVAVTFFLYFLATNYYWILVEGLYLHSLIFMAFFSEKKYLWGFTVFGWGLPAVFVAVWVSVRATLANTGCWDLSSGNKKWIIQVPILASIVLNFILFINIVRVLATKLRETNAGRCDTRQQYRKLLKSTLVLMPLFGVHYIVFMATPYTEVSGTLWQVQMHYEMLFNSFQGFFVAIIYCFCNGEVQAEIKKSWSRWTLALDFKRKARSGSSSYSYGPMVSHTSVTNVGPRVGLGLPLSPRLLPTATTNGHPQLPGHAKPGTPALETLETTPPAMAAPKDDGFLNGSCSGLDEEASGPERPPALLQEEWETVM
Assay: In vitro cAMP signal activity in HKRK-B7 cells (LLC-PK1 cells overexpressing the human PTH1 receptor)
Format: cell-based
Conditions: HKRK-B7 cells; compound at 1×10^−3 M; cAMP produced as percentage of that produced by hPTH(1-34) at 100 nM

**Q.** `Cc1cc(N(C)C(N)=O)cc(C)c1CCS(=O)(=O)N1CCC2(CC1)N=C([C@@H]1C[C@H](C)C[C@H](C)C1)NC2=O` [Compound 1040, 1-(4-{2-[2-((1S,3S,5R)-3,5-dimethyl-cyclohexyl)-4-oxo-1,3,8-triaza-spiro[4.5]dec-1-ene-8-sulfonyl]-ethyl}-3,5-dimethyl-phenyl)-1-methyl-urea] was tested. Which “cAMP production activity (%)” value did it give?
**A.** Its value is 111%.

**Q.** How did the “cAMP production activity (%)” value turn out when `CCCC(CCC)C1=NC2(CCN(S(=O)(=O)CCc3c(C)cc(N(C)C(N)=O)cc3C)CC2)C(=O)N1` [Compound 1041, 1-(3,5-dimethyl-4-{2-[4-oxo-2-(1-propyl-butyl)-1,3,8-triaza-spiro[4.5]dec-1-ene-8-sulfonyl]-ethyl}-phenyl)-1-methyl-urea] was run?
**A.** Its value is 38%.

**Q.** With `Cc1cc(N(C)C(N)=O)cc(C)c1CCS(=O)(=O)N1CCC2(CC1)N=C(C1CCC(CC(F)(F)C(F)(F)F)CC1)NC2=O` (stereo not shown) [Compound 1042, 1-[3,5-dimethyl-4-(2-{4-oxo-2-[4-(2,2,3,3,3-pentafluoro-propyl)-cyclohexyl]-1,3,8-triaza-spiro[4.5]dec-1-ene-8-sulfonyl}-ethyl)-phenyl]-1-methyl-urea] as the compound, how does the “cAMP production activity (%)” value read?
**A.** Its value is 102%.

**Q.** Which “cAMP production activity (%)” value does the source give for `Cc1cc(N(C)C(N)=O)cc(C)c1CCS(=O)(=O)N1CCC2(CC1)N=C(CCCCCC(F)(F)C(F)(F)F)NC2=O` [Compound 1043, 1-(3,5-Dimethyl-4-{2-[4-oxo-2-(6,6,7,7,7-pentafluoro-heptyl)-1,3,8-triaza-spiro[4.5]dec-1-ene-8-sulfonyl]-ethyl}-phenyl)-1-methyl-urea] here?
**A.** Its value is 99%.

**Q.** Which “cAMP production activity (%)” value does the source give for `CC(=O)N(C)c1cc(C)c(CCS(=O)(=O)N2CCC3(CC2)N=C(CCCCCCC(F)(F)F)NC3=O)c(C)c1` [Compound 1044, N-(3,5-Dimethyl-4-{2-[4-oxo-2-(7,7,7-trifluoro-heptyl)-1,3,8-triaza-spiro[4.5]dec-1-ene-8-sulfonyl]-ethyl}-phenyl)-N-methyl-acetamide] here?
**A.** The value was 86%.

**Q.** For `Cc1cc(N(C)C(N)=O)cc(C)c1CCS(=O)(=O)N1CCC2(CC1)N=C(CCCCCCC(F)(F)F)NC2=O` [Compound 1045, 1-(3,5-dimethyl-4-{2-[4-oxo-2-(7,7,7-trifluoro-heptyl)-1,3,8-triaza-spiro[4.5]dec-1-ene-8-sulfonyl]-ethyl}-phenyl)-1-methyl-urea], which “cAMP production activity (%)” value is on record?
**A.** Its value is 106%.

**Q.** For `Cc1cc(N(C)C(N)=O)cc(C)c1CCS(=O)(=O)N1CCC2(CC1)N=C(CCCCCCCCC(F)(F)F)NC2=O` [Compound 1046, 1-(3,5-dimethyl-4-{2-[4-oxo-2-(9,9,9-trifluoro-nonyl)-1,3,8-triaza-spiro[4.5]dec-1-ene-8-sulfonyl]-ethyl}-phenyl)-1-methyl-urea], which “cAMP production activity (%)” value is on record?
**A.** Its value is 101%.

**Q.** For `CC(=O)N(C)c1cc(C)c(CCS(=O)(=O)N2CCC3(CC2)N=C(CCCCCCCCC(F)(F)F)NC3=O)c(C)c1` [Compound 1047, N-(3,5-dimethyl-4-{2-[4-oxo-2-(9,9,9-trifluoro-nonyl)-1,3,8-triaza-spiro[4.5]dec-1-ene-8-sulfonyl]-ethyl}-phenyl)-N-methyl-acetamide], which “cAMP production activity (%)” value is on record?
**A.** Its value is 82%.

**Q.** Which “cAMP production activity (%)” value does the source give for `Cc1cc(N(C)C(N)=O)cc(C)c1CCS(=O)(=O)N1CCC2(CC1)N=C(C1(CCCC(F)(F)F)CC1)NC2=O` [Compound 1048, 1-[3,5-Dimethyl-4-(2-{4-oxo-2-[1-(4,4,4-trifluoro-butyl)-cyclopropyl]-1,3,8-triaza-spiro[4.5]dec-1-ene-8-sulfonyl}-ethyl)-phenyl]-1-methyl-urea] here?
**A.** The value was 96%.

**Q.** How did the “cAMP production activity (%)” value turn out when `Cc1cc(N(C)C(N)=O)cc(C)c1CCS(=O)(=O)N1CCC2(CC1)N=C(C1CCCC(C(F)(F)F)C1)NC2=O` (stereo not shown) [Compound 1050, 1-(3,5-Dimethyl-4-{2-[4-oxo-2-(3-trifluoromethyl-cyclohexyl)-1,3,8-triaza-spiro[4.5]dec-1-ene-8-sulfonyl]-ethyl}-phenyl)-1-methyl-urea] was run?
**A.** Its value is 92%.

**Q.** With `Cc1cc(N(C)C(N)=O)cc(C)c1CCS(=O)(=O)N1CCC2(CC1)N=C(C1C[C@@H](C)[C@@H](C)C1)NC2=O` (stereo partly drawn) [Compound 1051, 1-(4-{2-[2-(cis-3,4-dimethyl-cyclopentyl)-4-oxo-1,3,8-triaza-spiro[4.5]dec-1-ene-8-sulfonyl]-ethyl}-3,5-dimethyl-phenyl)-1-methyl-urea] as the compound, how does the “cAMP production activity (%)” value read?
**A.** Its value is 85%.

**Q.** Which “cAMP production activity (%)” value does the source give for `Cc1cc(N(C)C(N)=O)cc(C)c1CCS(=O)(=O)N1CCC2(CC1)N=C(C(C1CC1)C1CC1)NC2=O` [Compound 1052, 1-{4-[2-(2-dicyclopropylmethyl-4-oxo-1,3,8-triaza-spiro[4.5]dec-1-ene-8-sulfonyl)-ethyl]-3,5-dimethyl-phenyl}-1-methyl-urea] here?
**A.** The value was 62%.

**Q.** `Cc1cc(N(C)C(N)=O)cc(C)c1CCS(=O)(=O)N1CCC2(CC1)N=C(C1C3CCCC1CCC3)NC2=O` (stereo not shown) [Compound 1053, 1-{4-[2-(2-bicyclo[3.3.1]non-9-yl-4-oxo-1,3,8-triaza-spiro[4.5]dec-1-ene-8-sulfonyl)-ethyl]-3,5-dimethyl-phenyl}-1-methyl-urea] was tested. Which “cAMP production activity (%)” value did it give?
**A.** Its value is 70%.

**Q.** Which “cAMP production activity (%)” value does the source give for `Cc1cc(N(C)C(N)=O)cc(C)c1CCS(=O)(=O)N1CCC2(CC1)N=C(C1C[C@H]3CC[C@@H](C1)C3)NC2=O` (stereo partly drawn) [Compound 1054, 1-{4-[2-((1R,5S)-2-bicyclo[3.2.1]oct-3-yl-4-oxo-1,3,8-triaza-spiro[4.5]dec-1-ene-8-sulfonyl)-ethyl]-3,5-dimethyl-phenyl}-1-methyl-urea] here?
**A.** The value was 80%.

**Q.** Which “cAMP production activity (%)” value does the source give for `Cc1cc(N(C)C(N)=O)cc(C)c1CCS(=O)(=O)N1CCC2(CC1)N=C(C1CCC(C)C1)NC2=O` (stereo not shown) [Compound 1055, 1-(3,5-dimethyl-4-{2-[2-(3-methyl-cyclopentyl)-4-oxo-1,3,8-triaza-spiro[4.5]dec-1-ene-8-sulfonyl]-ethyl}-phenyl)-1-methyl-urea] here?
**A.** Its value is 84%.

**Q.** How did the “cAMP production activity (%)” value turn out when `Cc1cc(N(C)C(N)=O)cc(C)c1CCS(=O)(=O)N1CCC2(CC1)N=C(C1C3CCC1CC3)NC2=O` (stereo not shown) [Compound 1056, 1-{4-[2-(2-bicyclo[2.2.1]hept-7-yl-4-oxo-1,3,8-triaza-spiro[4.5]dec-1-ene-8-sulfonyl)-ethyl]-3,5-dimethyl-phenyl}-1-methyl-urea] was run?
**A.** The value was 94%.

**Q.** How did the “cAMP production activity (%)” value turn out when `CCCCCC[C@H]1CCCC[C@@H]1C1=NC2(CCN(S(=O)(=O)CCc3c(C)cc(N(C)C(N)=O)cc3C)CC2)C(=O)N1` [Compound 1057, 1-(4-{2-[2-((1S,2S)-2-hexyl-cyclohexyl)-4-oxo-1,3,8-triaza-spiro[4.5]dec-1-ene-8-sulfonyl]-ethyl}-3,5-dimethyl-phenyl)-1-methyl-urea] was run?
**A.** The value was 100%.

**Q.** For `Cc1cc(N(C)C(N)=O)cc(C)c1CCS(=O)(=O)N1CCC2(CC1)N=C(C1CCC3(CC1)CC3)NC2=O` [Compound 1058, 1-{3,5-dimethyl-4-[2-(4-oxo-2-spiro[2.5]oct-6-yl-1,3,8-triaza-spiro[4.5]dec-1-ene-8-sulfonyl)-ethyl]-phenyl}-1-methyl-urea], which “cAMP production activity (%)” value is on record?
**A.** The value was 133%.

**Q.** For `Cc1cc(N(C)C(N)=O)cc(C)c1CCS(=O)(=O)N1CCC2(CC1)N=C(C1CCC(=C(F)F)CC1)NC2=O` (stereo not shown) [Compound 1059, 1-(4-{2-[2-(4-Difluoromethylene-cyclohexyl)-4-oxo-1,3,8-triaza-spiro[4.5]dec-1-ene-8-sulfonyl]-ethyl}-3,5-dimethyl-phenyl)-1-methyl-urea], which “cAMP production activity (%)” value is on record?
**A.** Its value is 116%.

**Q.** For `CC(=O)Nc1ccc(CCS(=O)(=O)N2CCC3(CC2)N=C(C2CCC(CC(F)F)CC2)NC3=O)c(C)c1` (stereo not shown) [Compound 1060, N-[4-(2-{2-[4-(2,2-Difluoro-ethyl)-cyclohexyl]-4-oxo-1,3,8-triaza-spiro[4.5]dec-1-ene-8-sulfonyl}-ethyl)-3-methyl-phenyl]-acetamide], which “cAMP production activity (%)” value is on record?
**A.** The value was 58%.

**Q.** `CC(=O)Nc1ccc(CCS(=O)(=O)N2CCC3(CC2)N=C([C@H]2CC[C@H](CCF)CC2)NC3=O)c(C)c1` [Compound 1061, N-[4-(2-{2-[4-(2-fluoro-ethyl)-cyclohexyl]-4-oxo-1,3,8-triaza-spiro[4.5]dec-1-ene-8-sulfonyl}-ethyl)-3-methyl-phenyl]-acetamide] was tested. Which “cAMP production activity (%)” value did it give?
**A.** The value was 55%.

**Q.** How did the “cAMP production activity (%)” value turn out when `CCCC[C@]1(F)CC[C@@H](C2=NC3(CCN(S(=O)(=O)CCc4ccc(NC(C)=O)cc4C)CC3)C(=O)N2)CC1` [Compound 1062, N-(4-{2-[2-(4-butyl-4-fluoro-cyclohexyl)-4-oxo-1,3,8-triaza-spiro[4.5]dec-1-ene-8-sulfonyl]-ethyl}-3-methyl-phenyl)-acetamide] was run?
**A.** The value was 65%.

**Q.** For `CC(=O)Nc1ccc(CCS(=O)(=O)N2CCC3(CC2)N=C(C2CCC(/C=C/CF)CC2)NC3=O)c(C)c1` (stereo not shown) [Compound 1063, N-[4-(2-{2-[4-((E)-3-fluoro-propenyl)-cyclohexyl]-4-oxo-1,3,8-triaza-spiro[4.5]dec-1-ene-8-sulfonyl}-ethyl)-3-methyl-phenyl]-acetamide], which “cAMP production activity (%)” value is on record?
**A.** Its value is 72%.

**Q.** How did the “cAMP production activity (%)” value turn out when `CC(=O)Nc1ccc(CCS(=O)(=O)N2CCC3(CC2)N=C(C2CCC(CCCF)CC2)NC3=O)c(C)c1` (stereo not shown) [Compound 1064, N-[4-(2-{2-[4-(3-Fluoro-propyl)-cyclohexyl]-4-oxo-1,3,8-triaza-spiro[4.5]dec-1-ene-8-sulfonyl}-ethyl)-3-methyl-phenyl]-acetamide] was run?
**A.** Its value is 73%.

**Q.** For `CC(=O)Nc1ccc(CCS(=O)(=O)N2CCC3(CC2)N=C(C2CCC(CCCCl)CC2)NC3=O)c(C)c1` (stereo not shown) [Compound 1065, N-[4-(2-{2-[4-(3-chloro-propyl)-cyclohexyl]-4-oxo-1,3,8-triaza-spiro[4.5]dec-1-ene-8-sulfonyl}-ethyl)-3-methyl-phenyl]-acetamide], which “cAMP production activity (%)” value is on record?
**A.** The value was 83%.
